No end group written: not given here.
Key:
[1] = Stability of non-covalent coating of fluorescent peptides on apatite ceramics or type-I collagen sponge; assay type: physicochemical; conditions: FITC-bound peptide on apatite ceramics or type-I collagen sponge; after 3, 7 or 10 days
Description: Non-covalent modifications of the materials were performed in Air Atmosphere at room temperature. The non-covalent coating strategy consisted in using a mixture of compound of the invention (SEQ ID NO: 9; concentration of 1×10^−3M) with an apatite ceramics implant or a mixture of compound of the invention (SEQ ID NO: 10; concentration of 1×10^−3M) with a type-I collagen sponge. The non-covalently coated conventional materials were characterized by using fluorescent peptides (Here SEQ ID NO: 9 and 10 covalently bound to fluorescein isothiocyanate (FITC), FIG. 3). The results shown here in FIG. 3 were obtained from experiments performed with apatite ceramics and a type-I collagen sponge. […] Indeed, after 3, 7 or 10 days, the osteogenic peptides were still coupled to the ceramics or the type-I collagen (FIG. 4). The biomaterial surface was characterized by X-ray photoelectron spectroscopy (Table 1). The X-ray photoelectron spectroscopy was performed as described in the Methods section.

osteoblast progenitors = assay: Osteogenic differentiation of osteoblast progenitors on coated materials (Osteopontin staining, Runx2 Q-PCR); assay type: cell-based; conditions: 48 hours on coated apatite ceramics or type-I collagen sponge vs native materials
Description: The cells were first fixed for 20 min with 4% paraformaldehyde/PBS at 4° C. After fixation, the cells were permeabilized in PBS containing 1% Triton X-100 for 15 min. Runx2, Osterix, Stro-1, Vinculin, Phalloidin, Osteopontin, Sox2, Sox9 antibodies were visualized by treating the cells with 1% (v/v) specific monoclonal antibodies for 1 hour at 37° C. Then the samples were incubated with Alexa Fluor® 568 or 647 (F(ab′)2 fragment of IgG(H+L)) during 30 min at room temperature. The cell nuclei were counterstained in 20 ng/mL DAPI for 10 min at room temperature.
Total RNA was extracted by using the RNeasy total RNA kit (Qiagen®) according to the manufacturer's instructions. Purified total RNA was used as a template in order to make cDNA by a reverse transcription reaction (Gibco Brl®) with random primers (Invitrogen®). […] Data were analyzed with the iCycler IQ™® software and compared by the ΔΔCt method. […]
The effect of the GFR-binding compounds as defined herein (SEQ ID NO: 19 and 20) on the differentiation of osteoblast progenitors was evaluated. […]
Finally, it was verified that the osteoblast progenitors were differentiated into mature osteoblasts by analyzing the expression of the osteogenic biomarker Runx2. An increase in the Runx2 gene expression after 24 hours of culture (FIG. 8a) was observed by using Quantitative Real Time Polymerase Chain Reaction as described in the Methods section.

hMSCs [2] = assay: ALP activity of hMSCs on type-I collagen sponge coupled with compound; assay type: cell-based, Human; conditions: after 1 week of culture on type-I collagen sponge
Source text: Finally, it was verified that the hMSCs were differentiated into mature osteoblasts by analyzing the activity of the osteogenic biomarker ALP (Alkaline Phosphatase Activity). We observed an increase in the ALP activity after 1 week of culture on type-I collagen sponge coupled with GFR-binding compounds as defined herein (SEQ ID NO: 19) (FIG. 8b).

hMSCs [3] = assay: Cartilage regeneration: chondrocyte differentiation of hMSCs (Sox9, Aggrecan); assay type: cell-based, Human; conditions: after 96 hours of culture
Description: Total RNA was extracted by using the RNeasy total RNA kit (Qiagen®) according to the manufacturer's instructions. Purified total RNA was used as a template in order to make cDNA by a reverse transcription reaction (Gibco Brl®) with random primers (Invitrogen®). The cDNA was then used as a template for a real-time PCR amplification in the presence of SYBR green reagents (Bio-Rad®) by using a thermocycler (iCycler, Biorad®). Data were analyzed with the iCycler IQ™® software and compared by the ΔΔCt method. […]
Total RNA was extracted by using the RNeasy Mini Kit (Qiagen) and […] RNA was used for cDNA synthesis with AMV kit (Invitrogen®) according to the manufacturer′ instructions. Semi-quantitative reverse transcriptase-polymerase chain reaction (RT-PCR) was performed with Taq DNA Polymerase (Invitrogen®) in a thermocycler (Bio-Rad®). […] The PCR products were analyzed on 2% agarose gels. For the Aggrecan gene, the PCR bands were densitometrically quantified by using the BioCapt software (Vilber). […]
It was then verified that these hMSCs cultured with and without GFR-binding compounds as defined herein were differentiated into chondrocyte cells by analyzing the expression of the chondrocyte gene biomarker: Aggrecan. […] For that a semi-quantitative RT-PCR was performed as described in the Methods section for the Aggrecan gene and a Quantitative Real Time PCR for Sox9.

[4] = test system: Human umbilical-vein endothelial cells; assay: Endothelialization: area of adherent junctions (CD31) in HUVECs; assay type: cell-based; conditions: after 36 hours of culture
Description: Human umbilical-vein endothelial cells were cultured with and without endothelialization GFR-binding compounds as defined herein (SEQ ID NO: 26). An increase in the area of the adherent junctions (CD31) was observed after 36 hours of culture with GFR-binding compounds as defined herein (FIG. 10).

[5] = test system: Human umbilical-vein endothelial cells; assay: Angiogenesis: tube-like structure formation by HUVECs; assay type: cell-based; conditions: after 18 hours of culture
Description: Human umbilical-vein endothelial cells were cultured with and without vascular peptides (SEQ ID NO: 27).

Hair Follicle Stem Cells = assay: Activation of hair follicle stem cells (Sox2 expression, BMP-6 release); assay type: cell-based, Mouse
Source text: The following starting materials and reagents were used: • Apatite ceramics (also called apatite or ceramic in the present invention) were synthetized as described in Mater Res. 2004; 7(4): 625-630. • Titanium was obtained from Goodfellow®. • Hydrogel (poly(acrylamide-co-acrylic acid) gel) was synthetized as described in Langmuir 2011; 27(22):13635-42. • PEEK was obtained from Goodfellow®. • PET (Poly(ethylene terephthtalate) was obtained from Goodfellow@. • Type-I collagen sponge was obtained from Sigma®. • Hexane was obtained from Sigma®. • 3-succinimidyl-3-maleimidopropionate (SMP) was obtained from Sigma®. • DMF was obtained from Sigma®. • PBS 1× was obtained from Gibco®. • 3-(ethoxydimethylsilyl)propylamine was obtained from Sigma®. • Ammonium persulfate was obtained from Biorad®. • N,N,N′,N′-tetramethylethylenediamine was obtained from Aldrich®. • Acrylamid was obtained from Merck®. • Acrylic acid was obtained from Merck®. • N,N-methylene-bis-acrylamide was obtained from Merck®. • NaOH was obtained from Aldrich®. • N,N,N′,N′-tetramethylethylenediamine was obtained from Aldrich®. • Dimethylaminopropyl-3-ethylcarbodiimide hydrochloride was obtained from Aldrich®. • N-hydroxysuccinimide was obtained from Aldrich®. • 2-(N-morpholino)-ethane sulfonic acid was obtained from Aldrich®. • MilliQ water: is water characterised in terms of resistivity (typically 18.2 MΩ·cm at 25° C.). • Low glucose Dulbecco's Modified Eagle Medium (DMEM) was obtained from Invitrogen® • Minimum Essential Medium Eagle without ascorbic acid (αMEM) was obtained from Invitrogen®. • All of the cell culture experiments were carried out without any serum in the medium for the first 8 hours of culture. • Osteoblast progenitors or precursor osteoblasts: MC3T3-E1 cells were obtained from ATCC®. These cells were cultured in Alpha-MEM medium supplemented with 10% fetal calf serum (FCS) and 1% penicillin/streptomycin. All cells were used at a low passage number (passage 7), were subconfluently cultured and were seeded at 10^4 cells/cm^2 for the purpose of the experiments. • Human bone marrow Mesenchymal Stem Cells (hMSCs) were obtained from Lonza®. These cells were cultured in Alpha-MEM supplemented with 10% (v/v) FBS and 1% penicillin/streptomycin and incubated in a humidified atmosphere containing 5% (v/v) CO2 at 37° C. All cells were used at a low passage number (passage 2 to 4), were subconfluently cultured and were seeded at 10^4 cells/cm^2 for the purpose of the experiments. • Human adipose Mesenchymal Stem Cells (haMSCs) were obtained from Lonza®. These cells were cultured in Alpha-MEM supplemented with 10% (v/v) FBS and 1% penicillin/streptomycin and incubated in a humidified atmosphere containing 5% (v/v) CO2 at 37° C. […]

Neurons = assay: Neuron growth (dendrite growth, GAP43 Q-PCR); assay type: cell-based
Source text: […]

In the case of “SEQ ID NO: 9: compound of the invention non-covalently coated on apatite ceramics; tested bound to FITC; sequence not in this part (WWFWGSAISTLYLIGKTPKILKNYQ; also: FITC label, site not given here, cyclic, ring not given here)”, the “release of peptides from the coated material over time” value [1] is reported as “no significant release”.
For “SEQ ID NO: 10: compound of the invention non-covalently coated on type-I collagen sponge; tested bound to FITC; sequence not in this part (GTPGPSAISTLYLIGKTPKILKNYQ; also: cyclic, ring type not given here, bound to FITC, place not given here)”, the “release of peptides from the coated material over time” value [1] was “no significant release”.
For “SEQ ID NO: 19: GFR-binding compound, osteogenic, coated on apatite ceramics or collagen sponge; sequence not in this part (WWFWGSAISTLYLDEYDKVVLKNYQ; also: cyclic, ring type not given here)”, the “production of extracellular matrix proteins such as Osteopontin (OPN)” value (osteoblast progenitors) was “extensive amounts” and the ALP activity (hMSCs [2]) was “increase”.
For “SEQ ID NO: 20: GFR-binding compound, osteogenic, coated on apatite ceramics or collagen sponge; sequence not in this part (GTPGPSAISTLYLGGGGLKNYQ; also: cyclic, ring type not given here)”, the “production of extracellular matrix proteins such as Osteopontin (OPN)” value (osteoblast progenitors) was “extensive amounts”.
With “SEQ ID NO: 23: GFR-binding compound inducing cartilage regeneration; sequence not in this part (ELEPLPIVYYVGRKPKVEQLSNGG; also: cyclic, ring type not given here)” the “expression of the Sox9 protein” value (hMSCs [3]) was “expression of the Sox9 protein was observed”.
For “SEQ ID NO: 24: GFR-binding compound inducing cartilage regeneration; sequence not in this part (EPLPIVYYVGRTPKVEQLSNGG; also: cyclic, ring type not given here)”, the “expression of the Sox9 protein” value (hMSCs [3]) was “expression of the Sox9 protein was observed”.
In the case of “SEQ ID NO: 26: endothelialization GFR-binding compound; sequence not in this part (RSVKVAKVRIKPHQGQHKEVQVGG; also: cyclic, ring type not given here)”, the “area of the adherent junctions (CD31)” value [4] is reported as “increase”.
For “SEQ ID NO: 27: vascular peptide; sequence not in this part (SNITMQIMRIKPHQGQHIGEMSGG; also: cyclic, ring type not given here)”, the “formation of tube-like structures” value [5] was “formation of tube-like structures was observed”.
In the case of “SEQ ID NO: 29: GFR-binding compound tested on hair follicle stem cells; sequence not in this part (DENKNSSLSILFFDENKNVVLKVYP; also: cyclic, ring type not given here)”, the “BMP-6 release in the cell culture medium” value (Hair Follicle Stem Cells) is reported as “decrease” and the Sox2 protein expression (Hair Follicle Stem Cells) is reported as “increase”.
With “SEQ ID NO: 30: GFR-binding compound tested on hair follicle stem cells; sequence not in this part (DENEKSSLSILFFDENEKVVLKVYP; also: cyclic, ring type not given here)” the “BMP-6 release in the cell culture medium” value (Hair Follicle Stem Cells) was “decrease” and the Sox2 protein expression (Hair Follicle Stem Cells) was “increase”.
In the case of “SEQ ID NO: 38: neurogenic peptide; sequence not in this part (SPISILYIDAANNVVYKQYEDAAN; also: cyclic, ring type not given here)”, the “establishment of cell-cell contacts via dendrite growth” value (Neurons; after 6 hours of culture) is reported as “rapid establishment of cell-cell contacts” and the GAP43 gene expression (Neurons; after 48 hours of culture, Q-PCR) is reported as “high level of expression”.
